Assay results published in US20240382507A1, “PHARMACEUTICAL COMPOSITIONS COMPRISING 2,3,4,5- TETRAHYDROBENZOTHIEPIN- 1,1-DIOXIDE DERIVATIVES AND THE USE THEREOF” (Mirum Pharmaceuticals, Inc., priority 2023, published 2024).
Counter-ions that a name gives are not always drawn.

Legend:
[1] = Formulation flow properties; assay type: physicochemical
[2] = Excipient compatibility: potency and purity of binary volixibat:excipient formulations on storage (HPLC); assay type: physicochemical
Description: Binary formulations of volixibat potassium were prepared at either 1:1 or 10:1 ratio with the excipients outlined in Table 1.1. Powder grade excipients were utilized to maximize surface area interactions between excipient and drug substance.
Each formulation was prepared at 300 mg total sample size. Volixibat and each excipient was weighed into glass vials and mixed via vortex. A single vial of each formulation was stored loosely capped at two storage conditions: ambient/60% RH and 40° C./75% RH. Humidity control was obtained by using a saturated salt solution in a sealed container. […] A standard solution of volixibat DS prepared at nominal concentration in the analytical diluent served as the T=0 data point. The neat, loose drug substance powder was stored in the same vial configuration to serve as a control at each storage condition.
At the specified time points, approximately 50 mg of each formulation was sampled and diluted with analytical diluent in either 50 mL (for 1:1 formulations) or 100 mL (for […] and neat DS) to target nominal analytical concentration of 0.5 mg/mL volixibat. HPLC analysis was used based on the parameters described above under HPLC Parameters (Gradient Elution).

[3] = physchem; conditions: 25 °C, water

SMILES: CCCC[C@]1(CC)CS(=O)(=O)c2ccc(N(C)C)cc2[C@@H](c2cccc(NC(=O)N[C@@H]3O[C@H](COS(=O)(=O)[O-])[C@@H](O)[C@H](OCc4ccccc4)[C@H]3O)c2)[C@H]1O.[K+] [Volixibat DS]
- Bulk Density [1]: 0.54 g/mL
- Hausner Ratio [1]: 1.27
- Tapped Density [1]: 0.69 g/mL
- Potency, % LC Volixibat ([2]; stored at 40° C./75% RH, T = 2-weeks): 93.2 % LC
- Potency, % LC Volixibat ([2]; stored at 40° C./75% RH, T = 4 weeks): 105.1 % LC
- Potency, % LC Volixibat ([2]; stored at 40° C./75% RH, T = 8 weeks): 98.3 % LC
- Potency, % LC Volixibat ([2]; stored at RT/60% RH, T = 2-weeks): 100.9 % LC
- Potency, % LC Volixibat ([2]; stored at RT/60% RH, T = 4 weeks): 107.7 % LC
- Potency, % LC Volixibat ([2]; stored at RT/60% RH, T = 9 weeks): 97.1 % LC

SMILES: CCCC[C@]1(CC)CS(=O)(=O)c2ccc(N(C)C)cc2[C@@H](c2cccc(NC(=O)N[C@@H]3O[C@H](COS(=O)(=O)O)[C@@H](O)[C@H](OCc4ccccc4)[C@H]3O)c2)[C@H]1O [volixibat, ((2R,3R,4S,5R,6R)-4-benzyloxy-6-{3-[3-((3S,4R,5R)-3-butyl-7-dimethylamino-3-ethyl-4-hydroxy-1,1-dioxo-2,3,4,5-tetrahydro-1H-benzo[b]thiepin-5-yl)-phenyl]-ureido}-3,5-dihydroxy-tetrahydro-pyran-2-ylmethyl) hydrogen sulfate)]
- solubility [3]: > 200 mg/mL
